Reference: patent US20150038435A1, “N-TERMINALLY MODIFIED OLIGOPEPTIDES AND USES THEREOF” (Novo Nordisk A/S, priority 2012, published 2015)
Residues, ends and D or L forms follow the SMILES beside them. *: point of attachment. Lauroyl = CCCCCCCCCCCC(=O)*

Target: Chymotrypsin
Assay: Inhibition of insulin degradation, HPLC assay (Example 201)
Format: biochemical
Settings: for Ki: substrate A14E, B25H, B29K(N(eps)Octadecanedioyl-γGlu-OEG-OEG), desB30 human insulin
Procedure: Degradation using duodenum lumen enzymes (prepared by filtration of duodenum lumen content) from SPD rats.
Each HPLC vial contained Dulbecco's phosphate buffer saline (DPBS, Invitrogen catalogue #14190-094), A14E, B25H, B29K(N(eps)Octadecanedioyl-γGlu-OEG-OEG), desB30 human insulin, N-terminally acylated peptide or oligopeptide of the invention and enzyme (chymotrypsin, trypsin, elastase or duodenum lumen enzymes).
The assay was performed in an HPLC autosampler equilibrated at 37° C., at specified time points, aliquots were injected directly onto an HPLC column and the amount of the intact A14E, B25H, B29K(N(eps)Octadecanedioyl-γGlu-OEG-OEG), desB30 human insulin was determined. Degradation half life was determined by exponential fitting of the data (for example, single exponential decay, 2 parameters, Sigma Plot version 11, Systat Software) and normalized to half time determined for the reference insulins, or human insulin in each assay. […] This was done by plotting the half life achieved with different concentrations of the N-terminally acylated peptide or oligopeptides of the invention as a function of their concentrations and fitting the experimental results using, for example, sigmoidal logistic regression (2 parameters, Sigma Plot v 11). Inhibition constants for the interaction between the N-terminally acylated peptide or oligopeptides of the invention and proteolytic enzymes were also obtained by performing the assay described above with varying concentrations of the inhibitor and substrate and analyzing the results, for example, by double reciprocal transformation as known to the person skilled in the art and described for example in Hubalek, F. et al., J. Med. Chem. 47, 1760-1766 (2004). Other algorithms known to the person skilled in the art may also be used to determine inhibition constants from the results.

CCCCCCCCCCCC(=O)N[C@@H](C)C(=O)N[C@@H](C)C(=O)N1CCC[C@H]1C(=O)N[C@@H](Cc1ccccc1)C(=O)O [Example 34, N-dodecanoyl-Ala-Ala-Pro-Phe-OH] (Lauroyl-AAPF-OH)
kind of enzyme inhibition (chymotrypsin, insulin analogue as substrate): mixed inhibition | Ki (chymotrypsin): ~15 µM | Ki: 15 µM
